Test: xn = mol fraction of the nth substance listed

COC(C)=O + OCCO
viscosity [mPa·s], 101.33 kPa
Conditions | x2 = 0.1014 | x2 = 0.1953 | x2 = 0.2981 | x2 = 0.3974 | x2 = 0.5029 | x2 = 0.5992 | x2 = 0.6997 | x2 = 0.799 | x2 = 0.9639
298.15 K | 0.543 | 0.645 | 0.829 | – | 1.85 | 2.329 | 3.499 | 5.578 | 9.086
303.15 K | 0.507 | 0.599 | 0.756 | 1.008 | 1.633 | 2.026 | 3.025 | 4.658 | 7.673
308.15 K | 0.473 | 0.561 | 0.701 | 0.921 | 1.439 | 1.781 | 2.643 | 3.989 | 6.317

OCCNCCO + OCCO
298 K, 101.3 kPa
Conditions | viscosity [mPa·s]
x1 = 0.0049 | 17.27
x1 = 0.01 | 17.72
x1 = 0.044 | 20.95
x1 = 0.07152 | 25.16
x1 = 0.09514 | 28.03
x1 = 0.1331 | 37.15

COc1ccccc1N + OCCc1ccccc1
viscosity [mPa·s], 100 kPa
Conditions | x1 = 0.0957 | x1 = 0.1852 | x1 = 0.2904 | x1 = 0.3921 | x1 = 0.4911 | x1 = 0.6027 | x1 = 0.7023 | x1 = 0.8005 | x1 = 0.8904
303.15 K | 8.66 | 8.29 | 7.87 | 7.45 | 7.04 | 6.58 | 6.17 | 5.76 | 5.38
308.15 K | 6.95 | 6.71 | 6.43 | 6.16 | 5.9 | 5.6 | 5.33 | 5.06 | 4.82
313.15 K | 5.91 | 5.75 | 5.55 | 5.36 | 5.18 | 4.97 | 4.77 | 4.58 | 4.41
318.15 K | 4.89 | 4.8 | 4.69 | 4.58 | 4.47 | 4.35 | 4.23 | 4.12 | 4.02

OC[C@H](O)C(O)[C@@H](O)CO + OC[C@@H](O)[C@@H](O)CO
101 kPa, x1 = 0.36
Conditions | viscosity [mPa·s]
293.2 K | 1329000
298.2 K | 611700
303.2 K | 294200
308.1 K | 154700
313.2 K | 79520
318.2 K | 42740
323 K | 23480

OC[C@H](O)C(O)[C@@H](O)CO + OC[C@@H](O)[C@H](O)[C@@H](O)CO
Conditions | viscosity [mPa·s]
313 K, 101 kPa, x2 = 0.56 | 42740
